Values after ≈ are worked out from the molar mass of the structure shown. Values joined by “and” are separate entries in the source; they are usually repeats but may differ in a detail not shown here. Equal values may be shown once.
Key:
[1] = 25° C.; cited from earlier work
[2] = Tertiary butyl alcohol-water solubility trials (visual); type: physicochemical
Protocol: Before initiating solvent based Lyophilization trials, a detail assessment of metolazone solubility in Water+TBA (Tertiary butyl alcohol) was carried out to identify optimum ratio of TBA:Water.

[3] = Diluent selection study: solubility of metolazone in diluent mixtures; type: physicochemical
Protocol: The diluent selection study was conducted to select the best diluent combination for metolazone. The following components were evaluated in combination with phosphate buffer to check the solubility of metolazone and to observe the solution clarity.
Procedure for Example no ITT-1 to 111-5: An excess amount of drug substance PSD (particle size distribution) 10 micron (60 mg) was added to the 20 mL diluent mixtures specified in Ex. III-1 to II-5 so that the theoretical concentration was 3 mg/mL. After drug addition, these samples were sonicated up to 4 hr using a sonicator at room temperature. Solution clarity and quantitative solubility were observed.

[4] = Saturation solubility of metolazone in TBA:water ratios; type: physicochemical; details: for solubility: aqueous with cosolvent or surfactant or cyclodextrin, thermodynamic from solid
Protocol: Saturation solubility study of metolazone was conducted in different water to tertiary butyl alcohol ratios ranging from 20-40% of TBA and 80-60% water. The study was conducted in triplicate.

Cc1ccccc1N1C(=O)c2cc(S(N)(=O)=O)c(Cl)cc2NC1C (centres unmarked) [Metolazone, 7-chloro-1,2,3,4-tetrahydro-2-methyl-3-(2-methylphenyl)-4-oxo-6-quinazoline sulfonamide]
solubility in ethanol [1]: 9000 µg/mL (≈ 24.6 mM) | Observations ([2]; Trial 1: WFI, 5.04 mg metolazone, Q.S. to 10 mL): Insoluble | Observations ([2]; Trial 2: 20% TBA, 10.08 mg metolazone, Q.S. to 20 mL): opalescent | Observations ([2]; Trial 3: 30% TBA, 15.12 mg metolazone, Q.S. to 20 mL): clear | Observations ([2]; Trial 4: 40% TBA, 30.24 mg metolazone, Q.S. to 20 mL): clear | Observations ([2]; Trial 5: 50% TBA, 30.24 mg metolazone, Q.S. to 20 mL): clear | Observations ([2]; Trial 6: 60% TBA, 30.24 mg metolazone, Q.S. to 20 mL): clear | Observations ([2]; Trial 7: 30% TBA, 20.16 mg metolazone, Q.S. to 20 mL): clear | solubility ([3]; 40% PEG in buffer, aqueous with cosolvent or surfactant or cyclodextrin, thermodynamic from solid, 40% PEG in all tested buffers, API with particle size D90<10 microns, read-out: solubility): > 1200 µg/mL | solubility ([3]; 40% PEG-400 and 0.4% Kolliphor HS-15 in Tris buffer, pH 7.5, aqueous with cosolvent or surfactant or cyclodextrin, thermodynamic from solid, Ex: III-4, 031D: 40% PEG-400 + Kolliphor HS-15 0.4% + Tris buffer pH 7.5, read-out: Solubility): 2310 µg/mL | solubility ([3]; 40% PEG-400 and 0.4% Kolliphor HS-15 in phosphate buffer, pH 7.5, aqueous with cosolvent or surfactant or cyclodextrin, thermodynamic from solid, Ex: III-3, 031C: 40% PEG-400 + Kolliphor HS-15 0.4% + Phosphate buffer pH 7.5, read-out: Solubility): 2160 µg/mL | solubility ([3]; 40% PEG-400 in Tris buffer, pH 7.5, aqueous with cosolvent or surfactant or cyclodextrin, thermodynamic from solid, Ex: III-2, 031B: 40% PEG-400 + Tris buffer pH 7.5, read-out: Solubility): 1280 µg/mL | solubility ([3]; 40% PEG-400 in phosphate buffer, pH 7.5, aqueous with cosolvent or surfactant or cyclodextrin, thermodynamic from solid, Ex: III-1, 031A: 40% PEG-400 + Phosphate buffer pH 7.5, API PSD 10 micron, sonicated up to 4 hr, room temperature, read-out: Solubility): 1800 µg/mL | solubility ([3]; Ex: III-1, 031A: 40% PEG-400 + Phosphate buffer pH 7.5, API PSD 10 micron, sonicated up to 4 hr, room temperature): 1862 µg/mL | solubility ([3]; tertiary butyl alcohol/water for injection mixture, aqueous with cosolvent or surfactant or cyclodextrin, thermodynamic from solid, Ex: III-5, 031E: 50% Tertiary butyl alcohol and 50% Water for injection, read-out: Solubility): 3120 µg/mL | Solubility of each trial ([4]; 028A: 20% Tertiary butyl alcohol and 80% water mixture [20:80]): 289 µg/mL and 281 µg/mL | Solubility of each trial ([4]; 028B: 30% Tertiary butyl alcohol and 70% water mixture [30:70]): 948 µg/mL and 1044 µg/mL | Solubility of each trial ([4]; 028C: 40% Tertiary butyl alcohol and 60% water mixture [40:60]): 2122 µg/mL and 2025 µg/mL | slope of metolazone solubility versus TBA fraction in solvent ([4]; FIG. 4): 0.0913 | solubility ([4]; tertiary butyl alcohol/water mixture, 028A: 20% Tertiary butyl alcohol and 80% water mixture [20:80], read-out: Average solubility): 279 µg/mL | solubility ([4]; tertiary butyl alcohol/water mixture, 028A: 20% Tertiary butyl alcohol and 80% water mixture [20:80], read-out: Solubility of each trial): 267 µg/mL | solubility ([4]; tertiary butyl alcohol/water mixture, 028B: 30% Tertiary butyl alcohol and 70% water mixture [30:70], read-out: Average solubility): 1010 µg/mL | solubility ([4]; tertiary butyl alcohol/water mixture, 028B: 30% Tertiary butyl alcohol and 70% water mixture [30:70], read-out: Solubility of each trial): 1050 µg/mL | solubility ([4]; tertiary butyl alcohol/water mixture, 028C: 40% Tertiary butyl alcohol and 60% water mixture [40:60], read-out: Average solubility): 2110 µg/mL | solubility ([4]; tertiary butyl alcohol/water mixture, 028C: 40% Tertiary butyl alcohol and 60% water mixture [40:60], read-out: Solubility of each trial): 2170 µg/mL | solubility ([4]; tertiary butyl alcohol/water mixtures, TBA:water in the ratio of 30:70 to 40:60, read-out: solubility in solvent (TBA:water)): > 1000 µg/mL
